According to patent US7166618B2, “Nitrosated and nitrosylated cyclooxygenase-2 inhibitors, compositions and methods of use” (NitroMed, Inc., priority 1999, dated 2007):
“Also recorded” adds a separate entry of the source.

Legend:
ovine COX-2 = molecular target: T1, ovine COX-2 (Ovis aries, UniProt P79208); test: biochemical; assay type: biochemical; details: for IC50: ovine COX-2, read-out: COX-2 IC50
T1 sequence (P79208 17-603): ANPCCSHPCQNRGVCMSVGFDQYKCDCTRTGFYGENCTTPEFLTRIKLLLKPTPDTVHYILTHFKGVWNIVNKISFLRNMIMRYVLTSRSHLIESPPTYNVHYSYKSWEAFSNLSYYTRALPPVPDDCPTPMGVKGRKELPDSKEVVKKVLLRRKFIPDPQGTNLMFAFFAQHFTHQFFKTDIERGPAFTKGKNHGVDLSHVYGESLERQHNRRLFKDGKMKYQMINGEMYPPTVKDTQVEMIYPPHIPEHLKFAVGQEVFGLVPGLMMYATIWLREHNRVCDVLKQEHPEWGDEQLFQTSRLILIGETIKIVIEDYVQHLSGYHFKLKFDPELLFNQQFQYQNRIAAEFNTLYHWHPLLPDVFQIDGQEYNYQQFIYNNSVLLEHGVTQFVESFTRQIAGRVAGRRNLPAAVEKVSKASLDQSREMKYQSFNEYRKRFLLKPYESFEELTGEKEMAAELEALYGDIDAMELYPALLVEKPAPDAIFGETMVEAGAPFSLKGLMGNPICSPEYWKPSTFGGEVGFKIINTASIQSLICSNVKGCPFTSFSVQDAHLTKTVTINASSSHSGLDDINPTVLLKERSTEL
Protocol: (§1) The ovine COX-1 and COX-2 activities and the measurement of the prostaglandin products synthesized were performed using the COX Inhibitor Screening Assay (Cayman Chemical, Ann Arbor, Mich., which also contained the Prostaglandin Screening EIA Kit, used for prostaglandin quantification). The test compounds were dissolved at 50 times the highest final reaction concentration in DMSO or any other suitable solvent as stock solutions. These stock solutions were then diluted in the same solvent. Eight glass test tubes (13×100 mm) were placed in a 37° C. water bath. To each test tube was added 950 μL of reaction buffer (0.1 M Tris-HCl, pH 8.0, containing 5 mM EDTA, and 2 mM phenol), 10 μL of 100 µM heme solution, and 10 μL (5 units) of either ovine COX-1 or COX-2 and the resulting mixture was incubated with the enzyme for 2 minutes. Twenty μL of the solvent was added to one tube (100% initial activity or solvent control) and 20 μL of each dilution of the test compound was added to one tube each. Each tube was vortexed immediately after the addition. The enzyme was incubated with the inhibitor for 3.5 minutes at 37° C. The enzymatic reaction was then initiated by the addition of 10 μL of freshly prepared 10 mM arachidonic acid (neutralized with KOH), vortexed and then incubated for 2 minutes at 37° C. The reaction was terminated by the addition of 50 μL of 1 M HCl, vortexed and placed at room temperature. One hundred microliters of a saturated stannous chloride solution (50 mg/mL of 0.1 M HCl) was added and the reaction mixture was allowed to stand at room temperature for at least 5 minutes.
(§2) The prostaglandins (PG) produced in the reactions were assayed, after a 2,000-fold dilution, using the Prostaglandin Screening EIA Kit (Cayman Chemical, Ann Arbor, Mich.). The assay-contains an antibody with broad specificity for all the prostaglandin families (PGF, PGE, PGD, and thromboxane B-type) synthesized in the COX-1/COX 2 reactions. The synthesized prostaglandin competes with a PG-tagged acetylcholine esterase tracer for binding to the PG antibody. Binding of synthesized PG lowers the calorimetric development of the Ellman's Reagent (computed as % B/B0). The actual amount of synthesized PG was interpolated from a standard curve using known amounts of supplied prostaglandin E2 (PGE2) (PGE2 concentration vs. % B/B0). The data generated were the mean±standard deviation of triplicate wells in the EIA for a single reaction at a given inhibitor concentration.

ovine COX-1 = molecular target: T2, ovine COX-1 (Ovis aries, UniProt P05979); test: biochemical; details: for IC50: ovine COX-1
T2 sequence (P05979 25-600): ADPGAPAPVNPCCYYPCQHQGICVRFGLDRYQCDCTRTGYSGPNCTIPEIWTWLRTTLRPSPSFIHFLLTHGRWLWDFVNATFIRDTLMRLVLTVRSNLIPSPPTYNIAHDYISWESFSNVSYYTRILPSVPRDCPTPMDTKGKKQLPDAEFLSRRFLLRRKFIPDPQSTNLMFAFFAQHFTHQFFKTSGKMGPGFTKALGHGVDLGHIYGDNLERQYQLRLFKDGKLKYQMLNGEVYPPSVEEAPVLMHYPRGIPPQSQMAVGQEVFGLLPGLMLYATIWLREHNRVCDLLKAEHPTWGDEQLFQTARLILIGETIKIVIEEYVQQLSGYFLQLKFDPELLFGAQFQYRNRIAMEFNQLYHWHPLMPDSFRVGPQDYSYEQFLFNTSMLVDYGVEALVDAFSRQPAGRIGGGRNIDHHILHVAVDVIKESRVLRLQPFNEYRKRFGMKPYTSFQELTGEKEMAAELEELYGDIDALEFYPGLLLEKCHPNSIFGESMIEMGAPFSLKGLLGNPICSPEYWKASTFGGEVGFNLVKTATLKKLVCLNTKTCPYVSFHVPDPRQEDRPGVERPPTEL
Protocol: as §1, §2

[1] = system: rat aortic smooth muscle rings; test: Relaxation of phenylephrine-contracted rat aortic smooth muscle rings; details: rings precontracted with 10 μM phenylephrine; for relaxation of aortic smooth muscle ring: 100 nM to 100 μM test compound; for relaxation compared with reference NO donor (ISDN or GSNO): comparator as in the value
Protocol: Male Sprague-Dawley rats (Charles River Laboratories (Wilmington, Mass.) were euthanized by intraperiton injection of a high dose of sodium pentobarbitone (80–100 mg/kg). The thoracic aorta was rapidly excised and immediately placed in a Petri dish containing warm (37° C.) oxygenated (95% O2 and 5% CO2) Kreb's buffer (composition per millimolar: NaCl (119); KCl (4.69); CaCl2.H2O (2.52); MgSO4.7H2O (0.57); NaHCO3 (25); NaH2PO4.H2O (1.01) and glucose (11.1). Under a stereoscopic dissecting microscope, the aorta was cleaned, freed from adhering fat and connective tissues. The tissue was cut into ring segments, each approximately 2–3 mm in length.
For experiments to measure relaxation of the tissue under various conditions, a stainless steel tissue holder and an U-shaped stainless steel wire were inserted into the lumen of the aortic ring. The tissue holder anchored the ring at the bottom of the organ bath whereas the end of the U-shaped steel wire was tied with fine silk thread so that it connected to the FT-202 transducer. The tissue holder and the steel wire along with the aortic ring were then suspended in a 5-mL double-jacketed temperature-controlled glass organ bath (Radnoti Glass Technology, Inc., Monrovia, Calif.) filled with fresh Kreb's buffer. A mixture of 95% O2 and 5% CO2 was bubbled through a porous sintered disc at the bottom of the bath. The rings were given an initial resting tension of 1.5 g and the preparation was allowed to equilibrate at the initial tension for about 90 minutes. During this equilibration period, the bath fluid was changed every 15 minutes and replaced with fresh prewarmed (37° C.) Kreb's buffer. The isometric tension of the aortic muscle at rest and its response to different stimuli were recorded on a Power Macintosh 6100 computer via a MacLab 8/S computer interface (CB Sciences, Inc, Milford, Mass.) after an initial amplification through a low-noise ETH-400 bioamplifier (CB Sciences, Inc, Milford, Mass.). Contractile responsiveness of the tissue strips was established with 10 μM phenylephrine and the strips were incubated with the drug for 20 minutes to establish a steady level of contraction. To test the relaxation effects, test compounds were added to the phenylephrine-precontracted strips in the tissue bath at cumulative concentrations of 0.1 μM to 0.1 mM. Concentration of test compounds was increased only after relaxation at the previous concentration had reached a plateau level.

[2] = system: carrageenan-induced rat paw edema; test: Carrageenan-induced rat paw edema test; assay type: in vivo; details: rats dosed intragastrically, paw volume 3 hours after carrageenan
Protocol: The carrageenan-induced rat paw edema test was used to measure antiinflammatory activity. The paw edema test was performed according to the method of Winter et al, Proc. Soc. Exp. Biol. Med. 111: 544–547, 1962. Male Sprague-Dawley rats (200–250 g) were fasted for 24 hours with water ad libitum. The rats were dosed intragastrically with test compounds in a volume of 5 mL/kg. One hour after dosing the paw volume was measured. Then each rat received a subplantar injection of 50 μl of 1% suspension of carrageenan. Three hours later, the paw volume was measured and compared with the initial volume measured […]. The increase in paw volume is presented as the mean±SEM for 5 rats per group. Data were analyzed by performing an ANOVA test followed by a Student-Keuls post hoc test.

Structure (SMILES)	IC50 (ovine COX-2) [µM]	IC50 (ovine COX-1) [µM]	relaxation of aortic smooth muscle ring [1]	relaxation compared with reference NO donor (ISDN or GSNO) [1]	inhibition at 100 µM (ovine COX-1; Ovine COX-1 (footnote a), at 100 μM) [%]	paw volume (antiinflammatory activity) [2]	COX-2 inhibition potency compared with the parent compound (ovine COX-2; ovine enzymes, from Table 1)	relaxation compared with reference NO donor (ISDN or GSNO) ([1]; Citrate Salt)
NS(=O)(=O)c1ccc(-n2nc(CO[N+](=O)[O-])cc2-c2ccc(Cl)cc2)cc1 [Example 1b, 4-(5-(4-Chlorophenyl)-3-((nitrooxy)methyl)-3-hydropyrazolyl) benzenesulfonamide]	10	190	induced the relaxation of the aortic ring	more potent than that obtained by the nitrate compound, isosorbide dinitrate	–	–	–	–
NS(=O)(=O)c1ccc(-c2c(-c3ccccc3)noc2CO)cc1 [Example 2a, 4-(5-(Hydroxymethyl)-3-phenylisoxazol-4-yl)benzenesulfonamide, reference compound]	–	> 300	did not relax the tissue; also recorded: did not relax the aortic ring	–	0	reduced the paw volume	–	–
Cc1ccc(-c2cc(C(F)(F)F)nn2-c2ccc(S(N)(=O)=O)cc2)cc1 [Celecoxib, 4-(5-(4-methylphenyl)-3-(trifluoromethyl)-1H-pyrazol-1-yl)benzenesulfonamide]	–	–	–	–	–	reduced the paw volume	–	–
CS(=O)(=O)c1ccc(-c2nc3cc(CO)ccn3c2-c2ccc(F)cc2)cc1 [Example 5a, 1-(3-(4-Fluorophenyl)-7-(hydroxymethyl)(3a-hydroimidazolo(1,2-a)pyridin-2-yl))-4-(methylsulfonyl)benzene, reference compound]	12	> 300	–	–	–	–	–	–
Cc1onc(-c2ccccc2)c1-c1ccc(S(=O)(=O)NC(=O)CCC(=O)OCCC2(SN=O)CCN(C)CC2)cc1.O=C(O)CC(O)(CC(=O)O)C(=O)O [Example 3g, 2-(1-Methyl-4-(nitrosothio)-4-piperidyl)ethyl 3-(N-((4-(5-methyl-3-phenylisoxazol-4-yl)phenyl)sulfonyl)carbamoyl)propanoate Citrate Salt]	70	> 300	induced the relaxation of the aortic ring	–	–	–	not as potent as the parent non-nitrosylated compound	comparable to that obtained with GSNO
